Laboratory results reported in ChEMBL document CHEMBL6083181, “Advances in SHP2 tunnel allosteric inhibitors and bifunctional molecules” (Eur J Med Chem, 2024).
Values belong to the molecule of their own block, whether it stands above or below them.

Key:
[1] = Oral bioavailability in human; format: ADME, organism-based; conditions: in vivo
[2] = biological target: T1, Tyrosine-protein phosphatase non-receptor type 11 (Homo sapiens, UniProt Q06124); assay: Inhibition of human SHP2
T1 sequence (Q06124 whole entry): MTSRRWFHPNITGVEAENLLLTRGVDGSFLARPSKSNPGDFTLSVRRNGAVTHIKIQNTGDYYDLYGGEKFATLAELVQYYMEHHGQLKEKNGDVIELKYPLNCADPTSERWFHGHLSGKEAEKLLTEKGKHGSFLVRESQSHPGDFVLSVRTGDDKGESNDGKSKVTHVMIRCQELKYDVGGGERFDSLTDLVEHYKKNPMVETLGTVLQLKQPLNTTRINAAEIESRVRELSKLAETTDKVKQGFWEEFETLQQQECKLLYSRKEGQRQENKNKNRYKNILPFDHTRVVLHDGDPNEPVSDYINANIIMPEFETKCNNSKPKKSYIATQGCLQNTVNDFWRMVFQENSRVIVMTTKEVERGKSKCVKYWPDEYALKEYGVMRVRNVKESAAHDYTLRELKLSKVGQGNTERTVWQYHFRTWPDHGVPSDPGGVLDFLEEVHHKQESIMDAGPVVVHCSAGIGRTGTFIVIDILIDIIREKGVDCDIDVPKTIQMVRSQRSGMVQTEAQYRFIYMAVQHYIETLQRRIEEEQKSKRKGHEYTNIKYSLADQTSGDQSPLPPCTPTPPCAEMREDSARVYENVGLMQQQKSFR

[3] = Oral bioavailability in Sprague-Dawley rat at 10 mg/kg by LC-MS analysis; format: ADME, organism-based; conditions: in vivo
KYSE-520 cell line = assay: Antiproliferative activity against human KYSE520 cells assessed as reduction in cell viability by WST-8 assay

bioavailability [1]: 46%
Compound: CC1(N)CCN(c2cnc(-c3cccc(Cl)c3Cl)c(N)n2)CC1

IC50 [2]: < 0.01 µM
Compound: C[C@H]1OCC2(CCN(c3cnc(Sc4ccnc(NC(=O)CCCCCCNC(=O)c5cccnc5)c4Cl)c(N)n3)CC2)[C@H]1N

bioavailability [3]: 42.5%
Compound: CC1(N)CCN(c2cnc3c(Sc4ccncc4Cl)n[nH]c3n2)CC1
IC50 (KYSE-520 cell line): 5.73 µM
